Measurements as given in patent publication US6518012B1, “Method for regulating the expression of MHC antigens and CD40 by inhibitors of histone deacetylation” (Health Research, Inc., priority 1999, dated 2003).

Test system: MHC class II protein on the cell surface
Test: Cell surface MHC class II protein by flow cytometry on Colon 26 and J558
Type: cell-based, mouse
Conditions: for expression of MHC class II protein on the cell surface: Colon 26 (50 nM TSA 48 hours) and J558 (25 nM TSA 24 hours), flow cytometry, IFNγ 100 U/ml same time
Procedure: To determine the effect of TSA on cell surface protein expression, the J558 cell line was subjected to flow cytometric analyses as follows. Flow cytometric analyses were conducted by standard methods using cells fixed with 1.0% paraformaldehyde and analyzed on the FACScan (Becton Dickinson). Cell cycle analyses were carried out by flow cytometry with PI staining of genomic DNA. Cells were fixed and permeablized in methanol, treated with RNaseA and analyzed for DNA content by determination of FL3-area on the FACScan. The FL3-area data were analyzed with the ModFit software for determination of the percent cells in each phase of the cell cycle. In some cases, fluorescein isothiocyanate (FITC)-conjugated antibody staining was conducted prior to PI treatment and surface staining was analyzed as a function of cell cycle phase. Apoptosis was analyzed by staining with annexin-V directly conjugated with either FITC or RPE and by sub-G0 analysis of DNA staining. Expression levels without treatment are shown as shaded peaks, IFNγ treated cell expression is plotted by a thin line while the level of expression on TSA treated cells is represented by a heavy line. Isotype controls were analyzed and, in each case, fell on or below the levels shown for control cells. MC and Colon 26 treatments are shown for 50 nM TSA for 48 hours, while J558 treatment is for 25 nM TSA for 24 hours. All IFNγ treatments were 100 U/ml for the same length of time as the corresponding TSA treatment. The percent of cells staining positive for MHC class II or CD40 expression is indicated below each histogram. Since all cells were positive for MHC class I expression, the number under the histogram represents -fold change of expression calculated from the mean channel-shift after treatment relative to untreated cells. Data are representative of at least three independent experiments. Of the 13 markers analyzed on J558 cells, only class I, II and CD40 were enhanced, while levels of several non-expressed antigens were not elicited (including CD25, B7 integrin, CD40L, H2K^k and IA^k) while other markers, which were expressed, were not altered (including CD44, CD54, CD80, CD86 and CD119) by TSA treatment. […] The highest expression (21-fold induction) was achieved on J558 cells after 24 hr by 25 nM TSA. […] The separation of control and IFNγ curves in the CD40, J558 experiment depicted in FIG. 8 represents a mean channel fluorescence difference of only 1.3 and was not seen on independent replicates of the experiment.
TSA has been described as a cell cycle inhibitor that induces both G1 and especially G2/M blocks (Bestor, 1998, Nature, 393:311-312; Yoshida et al., 1988, Exp. Cell Res. 177:122-131). MHC class II, but not class I, has been reported (Inokoshi et al., 1999, Biochem. Biophys. Res. Commun., 256:372-376; Monroe et al., 1983, J. Immunol., 130:626-631) to be regulated differentially during the cell cycle. Therefore the cell cycle of the cell lines used in the present invention was analyzed by DNA staining and flow cytometry with each of the treatment conditions under study. […] Two additional methods were used to analyze cell cycle effects on MHC expression. Since it has been reported that TSA arrests cell cycle mainly in G2/M, and class II has been reported to accumulate in G2/M (Monroe et al., 1983, supra), experiments were designed to essentially arrest 100% of J558 cells in G2/M with nocodazole. […] From the above experiments, it can be concluded that DAIs have specific effects on MHC class I and II, and CD40 gene expression, which is likely not a result of its action on the cell cycle.

| Compound | expression of MHC class II protein on the cell surface | cells positive for class II expression (Colon 26, TSA concentration used in FIG. 8 (50 nM for 48 hours)) | MHC class II positive cells (J558, G2/M arrest experiment with nocodazole, data not shown) | cells positive for class II expression (J558, TSA concentration used in FIG. 8 (25 nM for 24 hours)) | induction of cell surface MHC class II, mean channel fluorescence (J558 cells, 24 hr, 25 nM TSA, highest expression) |
| --- | --- | --- | --- | --- | --- |
| CC(/C=C/C(=O)NO)=C\[C@@H](C)C(=O)c1ccc(N(C)C)cc1 [TSA, Trichostatin A] | significantly induced | 53% | 75% | 87% | 21 fold |
| IFNγ: gamma-interferon, cytokine used as comparator at 100 U/ml | did not induce | – | – | – | – |
